According to US9034400B2, “Process for preparation of a herbal extract” (Piramal Enterprises Limited, priority 2011, dated 2015):

Test system: subject with uncontrolled type II diabetes / non insulin-dependent diabetes
Test: Anecdotal studies: hypoglycemic effect, blood glucose level of diabetic subjects
Assay type: in vivo, human
Settings: before capsules

## CN(C)C(=N)N=C(N)N [metformin]
Study 2: person, 61 kg, non insulin-dependent diabetes, metformin 500 mg BID
  daily blood glucose level (base level) on metformin alone: 234 mg/dL
Study 3: person, 67 kg, non insulin-dependent uncontrolled diabetic, metformin 500 mg, three tablets per day
  daily blood glucose level (base level) on metformin alone: 261 mg/dL
